# Experimental data from patent US20120029187A1, “HALOALKYLSULFONANILIDE DERIVATIVE” (Nissan Chemical Industries, Ltd., priority 2009, published 2012).
# How the values were obtained:
# Assay type in all cases: in vivo
# ducksalad [1] = assay: Test Example 1: herbicidal effects in preemergence treatment under submerged conditions; conditions: dose 2.52 g/a
# Outline: (§1)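 Weed seeds and 2.5-leaf rice seedlings shared each flooded cup of alluvial soil. Dosing, expressed as g per are, was by pouring water-diluted emulsifiable concentrate onto the surface on sowing day. Mortality was graded 0 to 5 after three weeks' growth.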
# barnyardgrass [2] = assay: as above; conditions: dose 2.52 g/a
# Outline: as §1
# bulrush [3] = assay: as above; conditions: dose 2.52 g/a
# Outline: as §1
# large crabgrass [4] = assay: Test Example 3: herbicidal effects in soil treatment; conditions: dose 3.2 g/a
# Outline: (§2)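 Seeds were sown in sterilized diluvial soil and covered with about 1.5 cm of soil. Compounds, formulated as emulsifiable concentrates and diluted with water, were sprayed evenly over the soil surface at set doses in g/a. Herbicidal effect was scored on a rating scale three weeks later.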
# velvetleaf [5] = assay: as above; conditions: dose 3.2 g/a
# Outline: as §2
# common lambsquater [6] = assay: as above; conditions: dose 3.2 g/a
# Outline: as §2
# water foxtail [7] = assay: as above; conditions: dose 3.2 g/a
# Outline: as §2
# posumbu knotweed [8] = assay: as above; conditions: dose 3.2 g/a
# Outline: as §2
# common ragweed [9] = assay: as above; conditions: dose 3.2 g/a
# Outline: as §2
# barnyardgrass [10] = assay: as above; conditions: dose 3.2 g/a
# Outline: as §2
# redroot pigweed [11] = assay: as above; conditions: dose 3.2 g/a
# Outline: as §2
# Italian ryegrass [12] = assay: as above; conditions: dose 3.2 g/a
# Outline: as §2
# giant foxtail [13] = assay: as above; conditions: dose 3.2 g/a
# Outline: as §2
# common chickweed [14] = assay: as above; conditions: dose 3.2 g/a
# Outline: as §2
# large crabgrass [15] = assay: Test Example 4: herbicidal effect in foliage treatment; conditions: dose 3.2 g/a, three weeks after application
# Outline: (§3)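 Post-emergence foliar spray of water-diluted emulsifiable concentrate at predetermined doses (g per are), applied to plants 14 days after sowing in sterile diluvial soil (greenhouse, 25 to 30° C). Visual scale rating of effect taken 3 weeks later.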
# velvetleaf [16] = assay: as above; conditions: dose 3.2 g/a, three weeks after application
# Outline: as §3
# common lambsquater [17] = assay: as above; conditions: dose 3.2 g/a, three weeks after application
# Outline: as §3
# beadstraw = assay: as above; conditions: dose 3.2 g/a, three weeks after application
# Outline: as §3
# water foxtail [18] = assay: as above; conditions: dose 3.2 g/a, three weeks after application
# Outline: as §3
# posumbu knotweed [19] = assay: as above; conditions: dose 3.2 g/a, three weeks after application
# Outline: as §3
# common ragweed [20] = assay: as above; conditions: dose 3.2 g/a, three weeks after application
# Outline: as §3
# barnyardgrass [21] = assay: as above; conditions: dose 3.2 g/a, three weeks after application
# Outline: as §3
# redroot pigweed [22] = assay: as above; conditions: dose 3.2 g/a, three weeks after application
# Outline: as §3
# Italian ryegrass [23] = assay: as above; conditions: dose 3.2 g/a, three weeks after application
# Outline: as §3
# giant foxtail [24] = assay: as above; conditions: dose 3.2 g/a, three weeks after application
# Outline: as §3
# common chickweed [25] = assay: as above; conditions: dose 3.2 g/a, three weeks after application
# Outline: as §3
# transplanted rice = assay: Test Example 1: preemergence treatment under submerged conditions, effect on crop; conditions: dose 2.52 g/a
# Outline: as §1
# ducksalad [26] = assay: Test Example 2: herbicidal effects during the vegetation period under submerged conditions; conditions: treatment during the vegetation period under submerged conditions; dose 2.52 g/a
# Outline: (§4)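 Barnyardgrass, bulrush and ducksalad were co-sown in alluvial soil flooded to 4 cm and grown in a greenhouse at 25 to 30° C. At the 1- or 2-leaf stage, water-diluted emulsifiable concentrates went onto the water surface at set doses (g/a). Herbicidal effect was scored three weeks later on a graded scale.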
# barnyardgrass [27] = assay: as above; conditions: treatment during the vegetation period under submerged conditions; dose 2.52 g/a
# Outline: as §4
# bulrush [28] = assay: as above; conditions: treatment during the vegetation period under submerged conditions; dose 2.52 g/a
# Outline: as §4
smiles,measurement,setting,value
CCC1(C)CC(=O)N(Cc2ccccc2NS(=O)(=O)C(F)(F)F)CO1 (stereo not drawn) [II-40],"C: ducksalad, herbicidal effect (evaluation scale 0-5)",ducksalad [1],5 (mortality of 90% or above (nearly complete death))
same,"A: barnyardgrass, herbicidal effect (evaluation scale 0-5)",barnyardgrass [2],5 (mortality of 90% or above (nearly complete death))
same,"B: bulrush, herbicidal effect (evaluation scale 0-5)",bulrush [3],5 (mortality of 90% or above (nearly complete death))
same,"D: large crabgrass, herbicidal effect (evaluation scale 0-5)",large crabgrass [4],5 (mortality of 90% or above (nearly complete death))
same,"I: velvetleaf, herbicidal effect (evaluation scale 0-5)",velvetleaf [5],5 (mortality of 90% or above (nearly complete death))
same,"L: common lambsquater, herbicidal effect (evaluation scale 0-5)",common lambsquater [6],0 (mortality of less than 5% (almost ineffective))
same,"G: water foxtail, herbicidal effect (evaluation scale 0-5)",water foxtail [7],5 (mortality of 90% or above (nearly complete death))
same,"M: posumbu knotweed, herbicidal effect (evaluation scale 0-5)",posumbu knotweed [8],4 (mortality of at least 70% and less than 90%)
same,"J: common ragweed, herbicidal effect (evaluation scale 0-5)",common ragweed [9],5 (mortality of 90% or above (nearly complete death))
same,"A: barnyardgrass, herbicidal effect (evaluation scale 0-5)",barnyardgrass [10],5 (mortality of 90% or above (nearly complete death))
same,"K: redroot pigweed, herbicidal effect (evaluation scale 0-5)",redroot pigweed [11],4 (mortality of at least 70% and less than 90%)
same,"H: Italian ryegrass, herbicidal effect (evaluation scale 0-5)",Italian ryegrass [12],5 (mortality of 90% or above (nearly complete death))
same,"E: giant foxtail, herbicidal effect (evaluation scale 0-5)",giant foxtail [13],5 (mortality of 90% or above (nearly complete death))
same,"N: common chickweed, herbicidal effect (evaluation scale 0-5)",common chickweed [14],5 (mortality of 90% or above (nearly complete death))
same,"D: large crabgrass, herbicidal effect",large crabgrass [15],3 (mortality of at least 40% and less than 70%)
same,"I: velvetleaf, herbicidal effect",velvetleaf [16],5 (mortality of 90% or above (nearly complete death))
same,"L: common lambsquater, herbicidal effect",common lambsquater [17],4 (mortality of at least 70% and less than 90%)
same,"O: beadstraw, herbicidal effect",beadstraw,3 (mortality of at least 40% and less than 70%)
same,"G: water foxtail, herbicidal effect",water foxtail [18],5 (mortality of 90% or above (nearly complete death))
same,"M: posumbu knotweed, herbicidal effect",posumbu knotweed [19],0 (mortality of less than 5% (almost ineffective))
same,"J: common ragweed, herbicidal effect",common ragweed [20],4 (mortality of at least 70% and less than 90%)
same,"A: barnyardgrass, herbicidal effect",barnyardgrass [21],5 (mortality of 90% or above (nearly complete death))
same,"K: redroot pigweed, herbicidal effect",redroot pigweed [22],0 (mortality of less than 5% (almost ineffective))
same,"H: Italian ryegrass, herbicidal effect",Italian ryegrass [23],5 (mortality of 90% or above (nearly complete death))
same,"E: giant foxtail, herbicidal effect",giant foxtail [24],4 (mortality of at least 70% and less than 90%)
same,"N: common chickweed, herbicidal effect",common chickweed [25],4 (mortality of at least 70% and less than 90%)
same,"a: transplanted rice, effect on crop (evaluation scale 0-5)",transplanted rice,0 (mortality of less than 5% (almost ineffective))
same,"C: ducksalad, herbicidal effect (evaluation scale 0-5)",ducksalad [26],5 (mortality of 90% or above (nearly complete death))
same,"A: barnyardgrass, herbicidal effect (evaluation scale 0-5)",barnyardgrass [27],4 (mortality of at least 70% and less than 90%)
same,"B: bulrush, herbicidal effect (evaluation scale 0-5)",bulrush [28],5 (mortality of 90% or above (nearly complete death))
CCC(=O)N(c1ccccc1CN1COC(C)(CC)CC1=O)S(=O)(=O)C(F)(F)F (stereo not drawn) [II-41],"C: ducksalad, herbicidal effect (evaluation scale 0-5)",ducksalad [1],5 (mortality of 90% or above (nearly complete death))
same,"A: barnyardgrass, herbicidal effect (evaluation scale 0-5)",barnyardgrass [2],5 (mortality of 90% or above (nearly complete death))
same,"B: bulrush, herbicidal effect (evaluation scale 0-5)",bulrush [3],5 (mortality of 90% or above (nearly complete death))
same,"D: large crabgrass, herbicidal effect (evaluation scale 0-5)",large crabgrass [4],4 (mortality of at least 70% and less than 90%)
same,"I: velvetleaf, herbicidal effect (evaluation scale 0-5)",velvetleaf [5],5 (mortality of 90% or above (nearly complete death))
same,"L: common lambsquater, herbicidal effect (evaluation scale 0-5)",common lambsquater [6],3 (mortality of at least 40% and less than 70%)
same,"G: water foxtail, herbicidal effect (evaluation scale 0-5)",water foxtail [7],5 (mortality of 90% or above (nearly complete death))
same,"M: posumbu knotweed, herbicidal effect (evaluation scale 0-5)",posumbu knotweed [8],4 (mortality of at least 70% and less than 90%)
same,"J: common ragweed, herbicidal effect (evaluation scale 0-5)",common ragweed [9],4 (mortality of at least 70% and less than 90%)
same,"A: barnyardgrass, herbicidal effect (evaluation scale 0-5)",barnyardgrass [10],5 (mortality of 90% or above (nearly complete death))
same,"K: redroot pigweed, herbicidal effect (evaluation scale 0-5)",redroot pigweed [11],2 (mortality of at least 20% and less than 40%)
same,"H: Italian ryegrass, herbicidal effect (evaluation scale 0-5)",Italian ryegrass [12],5 (mortality of 90% or above (nearly complete death))
same,"E: giant foxtail, herbicidal effect (evaluation scale 0-5)",giant foxtail [13],4 (mortality of at least 70% and less than 90%)
same,"N: common chickweed, herbicidal effect (evaluation scale 0-5)",common chickweed [14],5 (mortality of 90% or above (nearly complete death))
same,"D: large crabgrass, herbicidal effect",large crabgrass [15],1 (mortality of at least 5% and less than 20%)
same,"I: velvetleaf, herbicidal effect",velvetleaf [16],5 (mortality of 90% or above (nearly complete death))
same,"L: common lambsquater, herbicidal effect",common lambsquater [17],2 (mortality of at least 20% and less than 40%)
same,"O: beadstraw, herbicidal effect",beadstraw,4 (mortality of at least 70% and less than 90%)
same,"G: water foxtail, herbicidal effect",water foxtail [18],5 (mortality of 90% or above (nearly complete death))
same,"M: posumbu knotweed, herbicidal effect",posumbu knotweed [19],0 (mortality of less than 5% (almost ineffective))
same,"J: common ragweed, herbicidal effect",common ragweed [20],3 (mortality of at least 40% and less than 70%)
same,"A: barnyardgrass, herbicidal effect",barnyardgrass [21],5 (mortality of 90% or above (nearly complete death))
same,"K: redroot pigweed, herbicidal effect",redroot pigweed [22],0 (mortality of less than 5% (almost ineffective))
same,"H: Italian ryegrass, herbicidal effect",Italian ryegrass [23],4 (mortality of at least 70% and less than 90%)
same,"E: giant foxtail, herbicidal effect",giant foxtail [24],4 (mortality of at least 70% and less than 90%)
same,"N: common chickweed, herbicidal effect",common chickweed [25],3 (mortality of at least 40% and less than 70%)
same,"a: transplanted rice, effect on crop (evaluation scale 0-5)",transplanted rice,0 (mortality of less than 5% (almost ineffective))
same,"C: ducksalad, herbicidal effect (evaluation scale 0-5)",ducksalad [26],5 (mortality of 90% or above (nearly complete death))
same,"A: barnyardgrass, herbicidal effect (evaluation scale 0-5)",barnyardgrass [27],5 (mortality of 90% or above (nearly complete death))
same,"B: bulrush, herbicidal effect (evaluation scale 0-5)",bulrush [28],5 (mortality of 90% or above (nearly complete death))
